In publication PMC8162404, “Proteomimetic surface fragments distinguish targets by function” (Chemical Science, 2020):

Biological target: T1, Gal-1 (Homo sapiens, UniProt P09382)
T1 construct: made in house; host or cells: E. coli BL21(DE3)
Assay: Pull-down assay with immobilized protein and LSM libraries
Assay type: binding
Conditions: H12 library; 1:1 binding assumed; read-out: Surface mapping KD (apparent)
Procedure: Pull-down assays with immobilized test proteins and foldameric LSM libraries were carried out. Proteins were equilibrated with LSM probes, and equilibrium bound fractions (FB) were determined from the unbound fractions measured by HPLC-MS methods. Hits were corrected with background binding of the resin. The protocol allowed all binding events to equilibrate irrespective of affinity, specificity, and binding kinetics. This was essential to judge overall druggability and promiscuity. Importantly, the concentration of protein and the total concentration of foldameric LSMs were equimolar, which minimized competition between the probes. This experimental setup approximated independent binding of individual library members. Results were visualized as heat maps of dissociation constants (Fig. 3).
Pull-down assay and data analysis
Pull-down assay. LSM sublibraries were screened separately as previously described.(2) Experiments were performed in the following buffers: (i) 20 mM pH 7.4 HEPES, 150 mM NaCl, 5 mM CaCl2 for CaM; (ii) 50 mM pH 7.4 HEPES, 150 mM NaCl, 1 mM TCEP, 1 mM CaCl2 for S100 proteins; (iii) 20 mM pH 7.4 HEPES, 150 mM NaCl, 1 mM TCEP for Gal-1 and (iv) 20 mM pH 7.4 HEPES, 150 mM NaCl for RecQ-WH. Assays were performed in paper filter spin cups (Thermo Scientific) with sample volumes of 100 µl. Hexahistidine-tagged proteins were immobilized on previously washed Co-NTA resin (TALON, Takara Bio USA, Inc., Mountain View, CA) in 64 µM final concentration. LSM sublibrary was added, in which each of the 64 library members were used at a concentration of 1 µM. Samples were incubated at room temperature for 30 min with shaking at 100 rpm. Then, samples were centrifuged at 1000 rpm for 2 min and washed with 100 µl pull-down buffer to remove unbound compounds.
The control experiments were performed using the same compounds and the resin but without the immobilized protein. In case of competitive assays, competitor peptides were added to LSM sublibrary samples in 200 µM final concentration. In the case of Gal-1, lactose (competitor) was used in a concentration of 10 mM. Experiments were performed at least twice. Mean […]
LC-MS methods and parameters. HPLC/ESI-MS analysis was used to characterize the samples from the pull-down assay. LC-MS analysis was performed with a Thermo Scientific Dionex UltiMate 3000 HPLC system interfaced to an LTQ ion trap mass spectrometer (Thermo Electron Corp., San Jose, CA, USA). Samples were injected onto an Aeris Widepore XB-C18 (250 x 4.6 mm) analytical HPLC column using gradient elution 5-80 % solution B during 25 minutes. For pull-down samples, eluent composition was 0.1% acetic acid in distilled water (Solution A) and 0.1% acetic acid in acetonitrile (solution B). Mass spectra were acquired in full scan mode from 200 to 2000 m/z range. For overlapping peaks, selective reaction monitoring (SRM) was […]
MS data analysis. Thermo Xcalibur 2.2 software was used for peak identification and integration. The majority of the foldameric fragments could be resolved independently via HPLC-MS/MS measurements based on molecular weight, MS fragmentation pattern and retention time. Peaks of some foldamers with β3-hIle or β3-hLeu in position R2 could not be resolved, these were integrated and averaged. In the processing method, each sample component was associated to a chromatographic peak based on previously identified mass (m/z) and retention time (ref (2) and Table S7-10). Using ICIS peak detection algorithm, the general detection and integration criteria were: smoothing points: 5, baseline window: 80, area noise factor: 5, peak noise factor: 10. Using these processing setups, all raw data files were reprocessed together and analyzed. Errors in peak identification during the automatic processing were corrected manually.
Calculation of the discussed parameters
1. Bound fractions (FB.) were calculated from the HPLC-MS intensity loss of the LSM probes compared to the control where no protein was immobilized to the resin: […]

T1 sequence (P09382 whole entry): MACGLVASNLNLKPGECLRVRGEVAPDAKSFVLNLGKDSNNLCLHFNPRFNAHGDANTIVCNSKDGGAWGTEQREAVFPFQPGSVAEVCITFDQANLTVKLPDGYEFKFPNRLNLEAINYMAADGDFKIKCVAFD

CC(C)[C@@H](CC(=O)N[C@H]1CCC[C@@H]1C(=O)N[C@H]1CCC[C@@H]1C(=O)N[C@H](CC(=O)N[C@H]1CCC[C@@H]1C(=O)N[C@H]1CCC[C@@H]1C(N)=O)[C@@H](C)O)NC(=O)[C@H]1CCC[C@@H]1NC(=O)[C@H]1CCC[C@@H]1N [H12 VT] and CC(C)[C@@H](CC(=O)N[C@H]1CCC[C@@H]1C(=O)N[C@H]1CCC[C@@H]1C(N)=O)NC(=O)[C@H]1CCC[C@@H]1NC(=O)[C@H]1CCC[C@@H]1NC(=O)C[C@H](C)NC(=O)[C@H]1CCC[C@@H]1NC(=O)[C@H]1CCC[C@@H]1N [H12 AV] are within 1.5-fold of each other in Kd: 432 µM for the first, 491 µM for the second.

NC(=O)[C@H]1CCC[C@@H]1NC(=O)[C@H]1CCC[C@@H]1NC(=O)C[C@H](Cc1c[nH]c2ccccc12)NC(=O)[C@H]1CCC[C@@H]1NC(=O)[C@H]1CCC[C@@H]1NC(=O)C[C@H](CCC(=O)O)NC(=O)[C@H]1CCC[C@@H]1NC(=O)[C@H]1CCC[C@@H]1N [H12 EW] and NC(=O)[C@H]1CCC[C@@H]1NC(=O)[C@H]1CCC[C@@H]1NC(=O)C[C@H](CO)NC(=O)[C@H]1CCC[C@@H]1NC(=O)[C@H]1CCC[C@@H]1NC(=O)C[C@H](CCC(=O)O)NC(=O)[C@H]1CCC[C@@H]1NC(=O)[C@H]1CCC[C@@H]1N [H12 ES] are within 1.5-fold of each other in Kd: 235 µM for the first, 289 µM for the second.

NCCCC[C@@H](CC(=O)N[C@H]1CCC[C@@H]1C(=O)N[C@H]1CCC[C@@H]1C(N)=O)NC(=O)[C@H]1CCC[C@@H]1NC(=O)[C@H]1CCC[C@@H]1NC(=O)C[C@H](CCC(=O)O)NC(=O)[C@H]1CCC[C@@H]1NC(=O)[C@H]1CCC[C@@H]1N [H12 EK] and NCCCC[C@@H](CC(=O)N[C@H]1CCC[C@@H]1C(=O)N[C@H]1CCC[C@@H]1C(N)=O)NC(=O)[C@H]1CCC[C@@H]1NC(=O)[C@H]1CCC[C@@H]1NC(=O)C[C@H](CC(=O)O)NC(=O)[C@H]1CCC[C@@H]1NC(=O)[C@H]1CCC[C@@H]1N [H12 DK] are within 1.5-fold of each other in Kd: 200 µM for the first, 173 µM for the second.

CC(C)C[C@@H](CC(=O)N[C@H]1CCC[C@@H]1C(=O)N[C@H]1CCC[C@@H]1C(=O)N[C@@H](CCC(=O)O)CC(=O)N[C@H]1CCC[C@@H]1C(=O)N[C@H]1CCC[C@@H]1C(N)=O)NC(=O)[C@H]1CCC[C@@H]1NC(=O)[C@H]1CCC[C@@H]1N [H12 LE] and CC(C)C[C@@H](CC(=O)N[C@H]1CCC[C@@H]1C(=O)N[C@H]1CCC[C@@H]1C(N)=O)NC(=O)[C@H]1CCC[C@@H]1NC(=O)[C@H]1CCC[C@@H]1NC(=O)C[C@H](CCC(=O)O)NC(=O)[C@H]1CCC[C@@H]1NC(=O)[C@H]1CCC[C@@H]1N [H12 EL] are within 1.5-fold of each other in Kd: 335 µM for the first, 244 µM for the second.

CSCC[C@@H](CC(=O)N[C@H]1CCC[C@@H]1C(=O)N[C@H]1CCC[C@@H]1C(N)=O)NC(=O)[C@H]1CCC[C@@H]1NC(=O)[C@H]1CCC[C@@H]1NC(=O)C[C@H](CC(=O)O)NC(=O)[C@H]1CCC[C@@H]1NC(=O)[C@H]1CCC[C@@H]1N [H12 DM] and CSCC[C@@H](CC(=O)N[C@H]1CCC[C@@H]1C(=O)N[C@H]1CCC[C@@H]1C(N)=O)NC(=O)[C@H]1CCC[C@@H]1NC(=O)[C@H]1CCC[C@@H]1NC(=O)C[C@H](CCC(=O)O)NC(=O)[C@H]1CCC[C@@H]1NC(=O)[C@H]1CCC[C@@H]1N [H12 EM] are within 1.5-fold of each other in Kd: 218 µM for the first, 251 µM for the second.

CC(C)[C@@H](CC(=O)N[C@H]1CCC[C@@H]1C(=O)N[C@H]1CCC[C@@H]1C(=O)N[C@@H](CO)CC(=O)N[C@H]1CCC[C@@H]1C(=O)N[C@H]1CCC[C@@H]1C(N)=O)NC(=O)[C@H]1CCC[C@@H]1NC(=O)[C@H]1CCC[C@@H]1N [H12 VS] and C[C@@H](CC(=O)N[C@H]1CCC[C@@H]1C(=O)N[C@H]1CCC[C@@H]1C(=O)N[C@@H](CO)CC(=O)N[C@H]1CCC[C@@H]1C(=O)N[C@H]1CCC[C@@H]1C(N)=O)NC(=O)[C@H]1CCC[C@@H]1NC(=O)[C@H]1CCC[C@@H]1N [H12 AS] are within 1.5-fold of each other in Kd: 408 µM for the first, 307 µM for the second.

C[C@@H](CC(=O)N[C@H]1CCC[C@@H]1C(=O)N[C@H]1CCC[C@@H]1C(=O)N[C@@H](CCC(N)=O)CC(=O)N[C@H]1CCC[C@@H]1C(=O)N[C@H]1CCC[C@@H]1C(N)=O)NC(=O)[C@H]1CCC[C@@H]1NC(=O)[C@H]1CCC[C@@H]1N [H12 AQ] and C[C@@H](CC(=O)N[C@H]1CCC[C@@H]1C(=O)N[C@H]1CCC[C@@H]1C(=O)N[C@@H](CCC(=O)O)CC(=O)N[C@H]1CCC[C@@H]1C(=O)N[C@H]1CCC[C@@H]1C(N)=O)NC(=O)[C@H]1CCC[C@@H]1NC(=O)[C@H]1CCC[C@@H]1N [H12 AE] are within 1.5-fold of each other in Kd: 456 µM for the first, 388 µM for the second.

Compared with C[C@@H](O)[C@@H](CC(=O)N[C@H]1CCC[C@@H]1C(=O)N[C@H]1CCC[C@@H]1C(N)=O)NC(=O)[C@H]1CCC[C@@H]1NC(=O)[C@H]1CCC[C@@H]1NC(=O)C[C@H](CCC(=O)O)NC(=O)[C@H]1CCC[C@@H]1NC(=O)[C@H]1CCC[C@@H]1N [H12 ET], CC[C@H](C)[C@@H](CC(=O)N[C@H]1CCC[C@@H]1C(=O)N[C@H]1CCC[C@@H]1C(N)=O)NC(=O)[C@H]1CCC[C@@H]1NC(=O)[C@H]1CCC[C@@H]1NC(=O)C[C@H](CCC(=O)O)NC(=O)[C@H]1CCC[C@@H]1NC(=O)[C@H]1CCC[C@@H]1N [H12 EI] is 1.5-fold lower in Kd: 372 µM for the first, 244 µM for the second.

C[C@@H](CC(=O)N[C@H]1CCC[C@@H]1C(=O)N[C@H]1CCC[C@@H]1C(N)=O)NC(=O)[C@H]1CCC[C@@H]1NC(=O)[C@H]1CCC[C@@H]1NC(=O)C[C@H](CC(=O)O)NC(=O)[C@H]1CCC[C@@H]1NC(=O)[C@H]1CCC[C@@H]1N [H12 DA] and NC(=O)[C@H]1CCC[C@@H]1NC(=O)[C@H]1CCC[C@@H]1NC(=O)C[C@H](CC(=O)O)NC(=O)[C@H]1CCC[C@@H]1NC(=O)[C@H]1CCC[C@@H]1NC(=O)C[C@H](CCC(=O)O)NC(=O)[C@H]1CCC[C@@H]1NC(=O)[C@H]1CCC[C@@H]1N [H12 ED] are within 1.5-fold of each other in Kd: 248 µM for the first, 238 µM for the second.

Going from CC[C@H](C)[C@@H](CC(=O)N[C@H]1CCC[C@@H]1C(=O)N[C@H]1CCC[C@@H]1C(=O)N[C@@H](CCC(N)=O)CC(=O)N[C@H]1CCC[C@@H]1C(=O)N[C@H]1CCC[C@@H]1C(N)=O)NC(=O)[C@H]1CCC[C@@H]1NC(=O)[C@H]1CCC[C@@H]1N [H12 IQ] to NC(=O)[C@H]1CCC[C@@H]1NC(=O)[C@H]1CCC[C@@H]1NC(=O)C[C@H](CCC(=O)O)NC(=O)[C@H]1CCC[C@@H]1NC(=O)[C@H]1CCC[C@@H]1NC(=O)C[C@H](CC(=O)O)NC(=O)[C@H]1CCC[C@@H]1NC(=O)[C@H]1CCC[C@@H]1N [H12 DE], the Kd falls from 446 µM to 238 µM (1.9-fold).

N=C(N)NCCC[C@@H](CC(=O)N[C@H]1CCC[C@@H]1C(=O)N[C@H]1CCC[C@@H]1C(=O)N[C@@H](CC(=O)O)CC(=O)N[C@H]1CCC[C@@H]1C(=O)N[C@H]1CCC[C@@H]1C(N)=O)NC(=O)[C@H]1CCC[C@@H]1NC(=O)[C@H]1CCC[C@@H]1N [H12 RD] and NC(=O)[C@H]1CCC[C@@H]1NC(=O)[C@H]1CCC[C@@H]1NC(=O)C[C@H](Cc1ccc(O)cc1)NC(=O)[C@H]1CCC[C@@H]1NC(=O)[C@H]1CCC[C@@H]1NC(=O)C[C@H](CC(=O)O)NC(=O)[C@H]1CCC[C@@H]1NC(=O)[C@H]1CCC[C@@H]1N [H12 DY] are within 1.5-fold of each other in Kd: 250 µM for the first, 205 µM for the second.

Same assay, conditions: H14 library; 1:1 binding assumed; read-out: Surface mapping KD (apparent)

C[C@@H](CC(=O)N[C@H]1CCCC[C@@H]1C(=O)N[C@H]1CCCC[C@@H]1C(=O)N[C@@H](CC(N)=O)CC(=O)N[C@H]1CCCC[C@@H]1C(N)=O)NC(=O)[C@H]1CCCC[C@@H]1N [H14 AN] and CSCC[C@@H](CC(=O)N[C@H]1CCCC[C@@H]1C(=O)N[C@H]1CCCC[C@@H]1C(=O)N[C@@H](CCC(=O)O)CC(=O)N[C@H]1CCCC[C@@H]1C(N)=O)NC(=O)[C@H]1CCCC[C@@H]1N [H14 ME] are within 1.5-fold of each other in Kd: 303 µM for the first, 250 µM for the second.

Same assay, conditions: read-out: KD estimated by pull-down experiments

For NC(=O)[C@H]1CCCC[C@@H]1NC(=O)C[C@H](Cc1c[nH]c2ccccc12)NC(=O)[C@H]1CCCC[C@@H]1NC(=O)[C@H]1CCCC[C@@H]1NC(=O)C[C@H](Cc1c[nH]c2ccccc12)NC(=O)[C@H]1CCCC[C@@H]1N [1b], the Kd was 30 to 40 µM.
